According to paper PMC7321149 (Molecules, 2020):
Like-named read-outs stand apart in the source and are kept apart here.

Key:
[1] = test system: L. braziliensis; test: Leishmania high content assay, intracellular amastigotes in PMA-differentiated THP-1 macrophages; assay type: cell-based, Leishmania braziliensis (MHOM/BR/1975/M2903); details: for EC50: Leishmania braziliensis
Method: (§1) THP-1 cells were plated onto 384-well assay plates (7000 cells/well, 25 μL) in RPMI complete media containing 50 ng/mL phorbol 12-myristate 13-acetate (PMA) and incubated at 37 °C/5% CO2 for 48 h. Cells were then infected with stationary-phase promastigotes at a multiplicity of infection (MOI) of 50 by adding 25 μL RPMI (without PMA reagent), containing 1.4 × 10^7 parasites/mL. After 24 h of incubation at 37 °C (34 °C for cutaneous species), negative control-vehicle (0.5% DMSO), the positive control (10 μM amphotericin B), and compounds were added to the plate at a volume of 10 μL/well, bringing the total volume to 60 μL/well. For the primary screenings, compounds from the LOPAC library were tested at a concentration of 50 µM. […] Assay plates were incubated at 37 °C or 34 °C/5% CO2. After 96 h of compound exposure, assay plates were fixed with paraformaldehyde (PFA) by adding 30 μL of 12% PFA in PBS, pH 7.4, followed by incubation for 15 min at room temperature. Plates were then washed three times with 50 μL of PBS, pH 7.4, and stained with 10 μL/well of 5 μM Draq5 in PBS, pH 7.4, for at least two hours before imaging.
(§2) Plates were imaged in Operetta High Content Imaging System (Perkin Elmer), version 3.1, at a 20× magnification and filters optimized for far-red fluorescence (fluorescence filter: […]). A total of four images were acquired per well, which corresponded to 600–800 cells analyzed per condition. Quantitative readouts of the infection (total THP-1 cell number, total number of infected THP-1 cells, and number of parasites (spots) per infected cell) were determined by custom analysis building blocks in Columbus image analysis software (Perkin Elmer). Briefly, host nuclei and cells were segmented based on DNA staining, followed by the detection of individual parasites also based on DNA staining. Infected cells were determined as cells with one or more spots in the cytoplasmatic area. Details of the analysis workflow are described in the (Supplementary Information (Figure S4 and Table S1).
(§3) HCS data were analyzed as previously described^29. Briefly, the ratio of infected cells to the total number of cells was determined as the infection ratio (IR). The raw data for IR values was normalized to the negative (DMSO-treated infected cells) and positive (non-infected cells) controls to determine the normalized antiparasitic activity, expressed as a percentage in comparison to control wells. The cellular ratio was determined as the proportion between the host cell number in compound-treated wells and the mean cell number in infected control wells. Plates were submitted to quality control analysis using the Z’-factor^53 and only plates with Z’-factor > 0.5 were considered for further analysis. Groups of different samples were analyzed using the ANOVA test followed by Tukey’s multiple comparison test. Studies of correlation were performed using Pearson or Spearman tests. […] Dose–response data were processed with the Graphpad Prism software, version 6, using the sigmoidal dose–response (variable slope) nonlinear curve fitting function.

[2] = test system: L. amazonensis, L. braziliensis, and L. donovani; test: Leishmania multi-species high content assay, result stated across the species panel; assay type: cell-based; details: for pan-leishmanial activity (efficacy): against all three species; for normalized activity against two species: two of the three species; for Emax: read-out: maximum efficacy
Method: as §1, §2, §3

[3] = test system: L. donovani; test: Leishmania high content assay, intracellular amastigotes in PMA-differentiated THP-1 macrophages; assay type: cell-based, Leishmania donovani (MHOM/IN/1980/DD8)
Method: as §1, §2, §3

[4] = test system: L. amazonensis; test: as above; assay type: cell-based, Leishmania amazonensis (MHOM/BR/1977/LTB0016); details: for EC50: Leishmania amazonensis
Method: as §1, §2, §3

[5] = test system: Leishmania; design: method as in PMID 27215734; details: cited from earlier work
[6] = test system: visceral leishmaniasis; design: method as in earlier work; details: phase II clinical trial; cited from earlier work
[7] = test system: amastigote forms of L. aethiopica; design: method as in PMID 11801222; details: cited from earlier work
[8] = test system: L. donovani; design: method as in PMID 21739037; details: in vitro; cited from earlier work
[9] = THP-1, read-out: pEC50 M L. d (converted)
[10] = THP-1, confirmatory dose-response, mean of two independent experiments, pEC50 = -log EC50 (M), read-out: pEC50 M L. b (converted)
[11] = THP-1, confirmatory dose-response, mean of two independent experiments, pEC50 = -log EC50 (M), read-out: pEC50 M L. a (converted)
[12] = THP-1, confirmatory dose-response, mean of two independent experiments, pEC50 = -log EC50 (M), read-out: pEC50 M L. d (converted)
[13] = confirmatory dose-response, mean of two independent experiments, pEC50 = -log EC50 (M)
[14] = THP-1, library screening plates, mean ± standard deviation from eight assay plates, read-out: EC50 Amphotericin B
[15] = reference compound concentration-effect curves (Figure 2B), 96 h exposure, infected THP-1, read-out: EC50
[16] = dose-response of reference drugs, span over the three species

## NC(=O)c1cc(N2CC2)c([N+](=O)[O-])cc1[N+](=O)[O-] [CB 1954]
[1]; THP-1
  EC50: 1.6e-06 M
[1]; THP-1, read-out: pEC50 M L. b (converted)
  EC50: 2.19e-06 M
[2]
  pan-leishmanial activity (efficacy): greater than 70%
[3]; THP-1
  EC50: 3.7e-06 M
[3]; [9]
  EC50: 3.72e-06 M
[4]; THP-1
  EC50: 3.1e-05 M
[4]; THP-1, read-out: pEC50 M L. a (converted)
  EC50: 3.09e-05 M

## COc1ccccc1OCCNCC(O)COc1cccc2[nH]c3ccccc3c12 (centres unmarked) [Carvedilol]
[1]; THP-1, confirmatory dose-response screen, values in text, read-out: EC50
  EC50: 1.62e-05 M
[1]; [10]
  EC50: 1.62e-05 M
[4]; [11]
  EC50: 3.55e-05 M

## CCc1cccc(N(C)C(N)=Nc2cccc3ccccc23)c1 [Cerestat]
[4]; [11]
  EC50: 2.88e-05 M

## CN(C)CCCN1c2ccccc2CCc2ccc(Cl)cc21 [Clomipramine]
[2]
  pan-leishmanial activity (efficacy): greater than 70%

## CN1CCN(C2Cc3ccccc3Sc3ccc(Cl)cc32)CC1 (centres unmarked) [Clorotepine]
[1]; [10]
  EC50: 2.88e-05 M
[3]; [12]
  EC50: 4.37e-05 M
[4]; [11]
  EC50: 4.57e-05 M

## C[C@]1(COc2ccc(N3CCC(Oc4ccc(OC(F)(F)F)cc4)CC3)cc2)Cn2cc([N+](=O)[O-])nc2O1 [Delamanid]
[5]
  efficacy against Leishmania: effective

## CNCCCN1c2ccccc2CCc2ccccc21 [Desipramine]
[1]; [10]
  EC50: 3.24e-05 M
[4]; [11]
  EC50: 2.75e-05 M

## CN(C)CC/C=C1/c2ccccc2Sc2cc(Cl)ccc21.Cl [EU-0100170]
[2]
  normalized activity against two species: > 90%

## CCN(CC)C(C)CN1c2ccccc2Sc2ccccc21 (centres unmarked) [Ethopropazine]
[1]; [10]
  EC50: 3.72e-05 M
[3]; [12]
  EC50: 3.16e-05 M
[4]; [11]
  EC50: 4.57e-05 M

## OCCN1CCN(CCC=C2c3ccccc3Sc3ccc(C(F)(F)F)cc32)CC1 [Flupenthixol]
[3]; [12]
  EC50: 3.47e-05 M

## N=C(CC(=O)O)C(=O)O [Iminoaspartate]
[1]; [13]
  pEC50 M L. b: 4.52
[4]; [13]
  pEC50 M L. a: 4.42

## CNC1CC(c2ccc(Cl)c(Cl)c2)c2ccccc21 (centres unmarked) [Indatraline]
[3]; THP-1
  EC50: 1.81e-05 M
[3]; [9]
  EC50: 1.82e-05 M

## Cl.O=S(=O)(c1cccc2c(Cl)cccc12)N1CCCNCC1 [ML-9]
[2]
  pan-leishmanial activity (efficacy): greater than 70%

## CNCCCC12CCC(c3ccccc31)c1ccccc12 [Maprotiline]
[2]
  pan-leishmanial activity (efficacy): greater than 70%

## CN1C[C@H](CNC(=O)OCc2ccccc2)C[C@@H]2c3cccc4c3c(cn4C)C[C@H]21 [Metergoline]
[3]; [12]
  EC50: 3.24e-05 M

## CNCCC=C1c2ccccc2CCc2ccccc21 [Nortriptyline]
[1]; [10]
  EC50: 3.63e-05 M
[4]; [11]
  EC50: 2.95e-05 M

## Fc1ccc([C@@H]2CCNC[C@H]2COc2ccc3c(c2)OCO3)cc1 [Paroxetine]
[3]; [12]
  EC50: 3.16e-05 M

## CCCCCCCCCCCCCCCCCCOP(=O)([O-])OC1CC[N+](C)(C)CC1 [Perifosine]
[3]; [12]
  EC50: 2.75e-05 M

## OCCN1CCN(CCCN2c3ccccc3Sc3ccc(Cl)cc32)CC1 [Perphenazine]
[3]; [12]
  EC50: 2.75e-05 M

## CN(C)CCCN1c2ccccc2Sc2ccccc21 [Promazine]
[1]; [10]
  EC50: 4.57e-05 M

## CC(CN1c2ccccc2Sc2ccccc21)N(C)C (centres unmarked) [Promethazine]
[1]; [10]
  EC50: 3.98e-05 M
[4]; [11]
  EC50: 3.98e-05 M

## CCC(=O)c1ccc2c(c1)N(CCCN(C)C)c1ccccc1S2 [Propionylpromazine]
[1]; [10]
  EC50: 3.09e-05 M
[4]; [11]
  EC50: 3.47e-05 M

## CNCCCC1c2ccccc2C=Cc2ccccc21 [Protriptyline]
[1]; [10]
  EC50: 3.72e-05 M
[2]
  pan-leishmanial activity (efficacy): greater than 70%
[3]; [12]
  EC50: 2.95e-05 M
[4]; [11]
  EC50: 3.89e-05 M

## c1cc(CN2CCCCC2)cc(OCCCNc2nc3ccccc3s2)c1 [SKF 95282]
[1]; [10]
  EC50: 2.63e-05 M
[3]; [12]
  EC50: 4.9e-05 M
[4]; [11]
  EC50: 4.27e-05 M

## CN1CCN(CCCN2c3ccccc3Sc3ccc(C(F)(F)F)cc32)CC1 [Trifluoperazine]
[3]; [12]
  EC50: 3.8e-05 M

## CN(C)CCCN1c2ccccc2Sc2ccc(C(F)(F)F)cc21 [Triflupromazine]
[3]; [12]
  EC50: 2.82e-05 M

## CC(CN(C)C)CN1c2ccccc2CCc2ccccc21 (centres unmarked) [Trimipramine]
[1]; [10]
  EC50: 2.82e-05 M
[3]; [12]
  EC50: 4.07e-05 M
[4]; [11]
  EC50: 3.98e-05 M

## CC[C@]1(O)C[C@@H]2CN(CCc3c([nH]c4ccccc34)[C@@](C(=O)OC)(c3cc4c(cc3OC)N(C)[C@H]3[C@@](O)(C(=O)OC)[C@H](OC(C)=O)[C@]5(CC)C=CCN6CC[C@]43[C@@H]65)C2)C1 [Vinblastine]
[1]; [10]
  EC50: 3.47e-05 M
[4]; [11]
  EC50: 2.82e-05 M

## C[C@@H]1[C@H](O)[C@@H](C)/C=C/C=C/C=C/C=C/C=C/C=C/C=C/[C@H](O[C@@H]2O[C@H](C)[C@@H](O)[C@H](N)[C@@H]2O)C[C@@H]2O[C@](O)(C[C@@H](O)C[C@@H](O)[C@H](O)CC[C@@H](O)C[C@@H](O)CC(=O)O[C@H]1C)C[C@H](O)[C@H]2C(=O)O [amphotericin B]
[1]; [14]
  EC50: 9.3e-07 ± 4.5e-07 M
[1]; [15]
  EC50: 1.3e-06 M
[2]; [16]
  EC50: 700 to 2000 nM
  Emax: ~100%
[3]; [14]
  EC50: 8.2e-07 ± 7e-08 M
[3]; [15]
  EC50: 7e-07 M
[4]; [14]
  EC50: 2.1e-06 ± 1.6e-07 M
[4]; [15]
  EC50: 1.7e-06 M

## CSc1ccc(OCc2ncc([N+](=O)[O-])n2C)cc1 [fexinidazole]
[6]
  efficacy in patients: failed to demonstrate efficacy

## CCCCCCCCCCCCCCCCOP(=O)([O-])OCC[N+](C)(C)C [miltefosine]
[1]; [15]
  EC50: 1.6e-06 M
[2]; EC50 compared between the three species
  potency variation between species: up to 4 fold
[2]; [16]
  Emax: 78 to 100%
[7]
  sensitivity to miltefosine, L. aethiopica relative to L. major: 14 fold
[3]; [15]
  EC50: 6e-07 M
[4]; THP-1, variation across ten independent experiments, read-out: EC50
  EC50: 9.7e-07 to 1.4e-05 M
[4]; [15]
  EC50: 2.3e-06 M
[8]
  potency against L. donovani relative to L. amazonensis, L. braziliensis, L. guyanensis, and L. chagasi: approximately 20 times

## Cl.O[Si](CCCN1CCCCC1)(c1ccc(F)cc1)C1CCCCC1 (centres unmarked) [pFHHSiD]
[2]
  normalized activity against two species: > 90%

## Bromocryptine
[1]; [13]
  pEC50 M L. b: 4.41
[4]; [13]
  pEC50 M L. a: 4.43
